Consider 28 compounds from patent US4670460A, “Inhibiting lipoxygenase with pyrazolone derivatives” (Bayer Aktiengesellschaft, priority 1983, dated 1987).

The target in test [1] is T1, lipoxygenase (Homo sapiens, UniProt P09917).
T1 construct: endogenous in cells; host or cells: human PMN leucocytes isolated from heparinized blood
T1 sequence (P09917 1-674): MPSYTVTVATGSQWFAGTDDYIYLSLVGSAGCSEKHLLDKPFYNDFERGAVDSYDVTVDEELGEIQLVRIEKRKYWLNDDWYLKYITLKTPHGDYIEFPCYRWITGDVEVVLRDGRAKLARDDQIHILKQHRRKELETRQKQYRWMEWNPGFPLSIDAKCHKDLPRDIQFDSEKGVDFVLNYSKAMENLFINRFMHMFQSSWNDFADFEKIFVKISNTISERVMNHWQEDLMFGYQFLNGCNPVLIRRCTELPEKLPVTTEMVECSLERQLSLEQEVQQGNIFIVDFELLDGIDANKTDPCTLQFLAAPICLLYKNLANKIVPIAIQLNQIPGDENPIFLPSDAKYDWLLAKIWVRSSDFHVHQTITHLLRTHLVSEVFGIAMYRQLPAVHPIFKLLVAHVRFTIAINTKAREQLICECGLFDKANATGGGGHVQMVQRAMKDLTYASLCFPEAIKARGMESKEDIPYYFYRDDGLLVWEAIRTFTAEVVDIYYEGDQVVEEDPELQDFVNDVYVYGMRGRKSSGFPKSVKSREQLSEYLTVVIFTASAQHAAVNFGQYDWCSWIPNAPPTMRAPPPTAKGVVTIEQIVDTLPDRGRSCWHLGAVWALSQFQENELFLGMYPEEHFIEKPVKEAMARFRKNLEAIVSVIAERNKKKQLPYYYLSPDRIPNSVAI
Nature of the test: Inhibition of LTB4 biosynthesis (lipoxygenase-inhibiting action) in human PMN leucocytes stimulated with ionophor A 23187. Conditions: 0.25 h; for inhibition at 10 µg/mL: concentration 10^-5 g/ml; for inhibition at 1 µg/mL: concentration 10^-6 g/ml. It counts as cell-based. As to the method: The human PMN leucocytes (>95%) used in the present example were obtained from heparinized complete blood by dextran sedimentation and subsequent density gradient separation (Ficoll-Paque) (compare A. Boyum, Scand. J. Immunol., 5, Suppl. 5, 9, 1976).
2×10^7 cells/ml were suspended in Dulbecco phosphate buffer containing Ca^2+ and were incubated with radioactively labelled arachidonic acid and the calcium ionophor A 23187 in the presence or absence of lipoxygenase inhibitor. After 15 minutes, the labelled lipoxygenase products were extracted from the acidified incubation medium and were separated by thin layer chromatography using a mobile phase mixture suitable for the leukotrienes (5-HETE-LTB4) (compare B. Jakschik et al., Biochem. Biophys. Res. Commun., 102, 624, 1981).
The distribution of the activity amongst the various metabolites was measured by a thin layer scanner. It is a measure of the lipoxygenase-inhibiting action of a test substance at a certain concentration.
The lipoxygenase metabolites were also additionally determined independently by means of high pressure liquid chromatography. This method enables the endogenous arachidonic acid metabolism to be studied with the aid of UV detection of the leukotrienes. In this method, the cells were treated as described above, with the exception that no radioactively labelled arachidonic acid was added exogenously. The high pressure liquid chromatography was carried out on Lichrosorb RP-18 (5 μm) columns. The mobile phase was methanol/water/glacial acetic acid 69/31/0.01. The flow rate was 1 ml/minute. Leukotriene B4 was determined at 280 nm and the HETE derivatives were determined at 232 nm, in each case by means of UV absorption.

A short description of test [2]: Antithrombotic action (prophylaxis of thromboses). It counts as in vivo. The settings on record: dose increased 100 times in comparison with nafazatrom.
The subject of test [3] is leucocytes. Nature of the test: Leucocyte stickiness, hamster cheek pouch venule. It counts as in vivo, Syrian golden hamsters. The procedure:
The number of leucocytes which pass a certain section of a vessel serves as a simple model for measuring the stickiness of leucocytes (Bray, M. A. et al., Prostaglandins 22, 213 (1981)). The number of leucocytes counted will be greater, the lower the stickiness of the cells.
The pyrazolone derivatives described below were investigated in this model.
Male Syrian golden hamsters (80-100 g) were anaesthetized with Nembutal (i.p.; 60 mg/kg). After insertion of a PE 10 catheter into the a. femoralis, the animal was laid on a Duling dissecting platform (MVR 5, 423 (1973)) and the right cheek pouch was withdrawn by inserting a Q-Tip. It was carefully drawn into the envisaged part of the platform, stretched and fixed.
From the start of the dissection, 5 ml/minute of Superfusat flowedover the prepared cheek pouch. The temperature of the solution was 36° C. While treating the vessels with care, the upper layer tissue was separated longitudinally and folded back to the side. Under about 200-fold magnification, an area of about 1 cm^2 of connective tissue was carefully exposed. The animal was placed on the object stand of a microscope, together with the dissecting platform. A thermocouple was inserted into the left cheek pouch. The body temperature of the animal was thus monitored and kept at 36±0.3° C. with the aid of an IR lamp (250 watt).
The leucocyte stickiness was measured at about 500-fold magnification. A venule (30-40 μm .phi.) was selected in the exposed area. The number of leucocytes per unit time (minutes) which migrate past a certain section of this vessel were counted.
Intra-arterial administration of the pyrazolone derivatives in 1% strength aqueous Tylose suspension led to the following results: […]

The test system of test [4] is 15-hydroxyprostaglandin dehydrogenase. Conditions: Wong and McGiff 1982; cited from earlier work.
For test [5], the system named is endogenous prostacyclin (PGI2) from the vascular endothelium. Conditions: Vermylen 1979, Chamone 1981, McIntyre and Salzman 1981; cited from earlier work.
For test [6], the system named is lipoxygenase. The settings on record: Busse et al. 1982; cited from earlier work.

The structures appear in SMILES notation.

What is called inhibition is the change of the read-out against control, counted positive when it falls. Low readings indicate a response near the control, high ones a response far below the control. As to `CC(C)CC1=NN(CCOc2ccc3ccccc3c2)C(=O)C1`, in test [1], the inhibition at 10 µg/mL came to 100% and the inhibition at 1 µg/mL was 100%.
As for `CC1=NN(CCOc2cccc3ccccc23)C(=O)C1`, in test [1], the inhibition at 10 µg/mL turned out to be 100% and the inhibition at 1 µg/mL came out at 62%.
In test [1], `CCC1=NN(CCOc2ccc3c(Br)cccc3c2)C(=O)C1C` (stereo not drawn) gave an inhibition at 10 µg/mL of 100% and an inhibition at 1 µg/mL of 100%.
In test [1], `CCCCC1C(=O)N(CCOc2ccc3c(Br)cccc3c2)N=C1C` (stereo not drawn) came in with an inhibition at 10 µg/mL of 100% and an inhibition at 1 µg/mL of 68%.
As to `Cc1cc(OC(=O)c2ccc3ccccc3c2)n(C(C)c2ccc(Cl)c(Cl)c2)n1` (stereo not drawn), in test [1], at 10 µg/mL the inhibition was 46%.
In test [1], `CCCCCCC1C(=O)N(CCOc2ccc3ccccc3c2)N=C1C` (stereo not drawn) had an inhibition at 10 µg/mL of 100% and an inhibition at 1 µg/mL of 93%.
In test [1], `O=C1CC(c2ccccc2)=NN1CCCc1ccccc1` gave an inhibition at 10 µg/mL of 100% and an inhibition at 1 µg/mL of 81%.
On to `O=C1CC(C2CCCCC2)=NN1CCCc1ccccc1`, for which, in test [1], the inhibition at 10 µg/mL was determined as 100% and testing at 1 µg/mL gave an inhibition of 71%.
In test [1], `CC1=NN(CCOc2ccc(Cl)c(C)c2)C(=O)C1` registered an inhibition at 10 µg/mL of 100% and an inhibition at 1 µg/mL of 43%.
Turning to `CC1=NN(C(C)c2ccc(Cl)c(Cl)c2)C(=O)C1Cc1ccccc1` (stereo not drawn), the inhibition at 10 µg/mL in test [1] turned out to be 100%.
The same measure, in the same setting: next, `CC1=NN(CCOc2ccc3ccccc3c2)C(=O)C1C1C(=O)N(CCOc2ccc3ccccc3c2)N=C1C` (stereo not drawn): 50%.
Compound `Cc1cc(OC(=O)c2ccc(Cl)cc2)n(C(C)c2ccc(Cl)c(Cl)c2)n1` (stereo not drawn) registered an inhibition at 10 µg/mL in test [1] of 80%.
In test [1], `O=C1CC(CO)=NN1CCOc1ccc2ccccc2c1` had an inhibition at 10 µg/mL of 80%.
With `CC(=O)OCC1=NN(CCOc2ccc3ccccc3c2)C(=O)C1`, in test [1], the inhibition at 10 µg/mL was 82% and the inhibition at 1 µg/mL was found to be 36%.
On to `COCC1=NN(CCOc2ccc3ccccc3c2)C(=O)C1`, for which, in test [1], at 10 µg/mL the inhibition was 93% and 1 µg/mL produced 40% inhibition.
With `CC1=NN(CCOc2ccc3ccccc3c2)C(=O)C1C` (stereo not drawn) [3,4-dimethyl derivative], the “Effect in the prophylaxis of thromboses” value in test [2] is reported as “no effect can be detected”.
Same read-out and setting: with `O=C1CC(Cc2ccccc2)=NN1CCOc1ccc2ccccc2c1` [Compound 3-benzyl] the entry was “no effect can be detected”; with `CC(C)C1=NN(CCOc2ccc3ccccc3c2)C(=O)C1` [Compound 3-isopropyl], “no effect can be detected”; with `CCCC1=NN(CCOc2ccc3ccccc3c2)C(=O)C1` [Compound 3-n-propyl], “no effect can be detected”.
For `CC1=NN(CCOc2ccccc2-c2ccccc2)C(=O)C1` [Compound 4], in test [3] (dose 0.1 mg/kg intra-arterial), the “Duration of action” value turned out to be 40 min and the “Increase in Leucocyte number (%)” value is on record as 35%.
As for `CCC1C(=O)N(CCOc2ccc3c(Br)cccc3c2)N=C1C` (stereo not drawn) [Compound 5], in test [3] (dose 1 mg/kg intra-arterial), the “Duration of action” value lay in the range of 30 to 50 min and the “Increase in Leucocyte number (%)” value was 200%.
`CC1=NN(CCc2cccc3ccccc23)C(=O)C1` [Compound 6]: in test [3] (dose 1 mg/kg intra-arterial), the “Duration of action” value was 20 to 30 min and the “Increase in Leucocyte number (%)” value was 30%.
In test [1], `CC1=NN(CCOc2ccccc2-c2ccccc2)C(=O)C1` [drawing 18] displayed an inhibition at 10 µg/mL of 100% and an inhibition at 1 µg/mL of 75%.
In test [1], `CCC1C(=O)N(CCOc2ccc3c(Br)cccc3c2)N=C1C` (stereo not drawn) [drawing 20] showed an inhibition at 10 µg/mL of 100% and an inhibition at 1 µg/mL of 100%.
Regarding `CC1=NN(CCOc2ccc3ccccc3c2)C(=O)C1C` (stereo not drawn) [drawing 22], in test [1], testing at 10 µg/mL gave an inhibition of 100% and testing at 1 µg/mL gave an inhibition of 83%.
The matching figures for `CC1=NN(CCc2cccc3ccccc23)C(=O)C1` [drawing 28]: 100% and 58%.
The matching figures for `CC1=NN(CCOc2ccc3ccccc3c2)C(=O)C1` [drawing 34, reference compound]: 100% and 58%.
In the case of `CC1=NN(CCOc2ccc3ccccc3c2)C(=O)C1` [nafazatrom, 3-methyl-1-[2-(2-naphthyloxy)-ethyl]-2-pyrazolin-5-one], the “Blockade of 15-hydroxyprostaglandin dehydrogenase, the PGI2-degrading enzyme” value in test [4] is given as “blocks”. Moreover, the “Stimulation of endogenous prostacyclin (PGI2) from the vascular endothelium” value in test [5] was “can act as a stimulator”. Further, the “Inhibition of lipoxygenase activity” value in test [6] was “inhibits lipoxygenase activity”.
